Assay results as given in patent publication US10435355B2, “Inhibitors of fatty acid amide hydrolase (FAAH) enzyme with improved oral bioavailability and their use as medicaments” (THE REGENTS OF THE UNIVERSITY OF CALIFORNIA, priority 2014, dated 2019).

Assay: Pharmacokinetic experiment (PO and IV) in cannulated rats
Type: in vivo, Sprague-Dawley rats
Settings: rat, plasma
Experimental: Pharmacokinetic Experiment and Analysis
Compounds were administered orally (PO) and intravenously (IV) to cannulated Sprague-Dawley rats at 10 and 3 mg/kg, respectively. Vehicle was: PEG400/Tween 80/Saline solution at 10/10/80 (% in volume), respectively. Three animals per dose were treated. Blood samples at 0, 15, 30, 60, 120, 240, 480 and 1440 min after administration were collected for PO arm. Blood samples at 0, 5, 15, 30, 60, 120 and 240 min after administration were collected for IV arm. Plasma was separated from blood by centrifugation for 15 min at 3500 rpm a 4° C., collected in a Eppendorf tube and frozen (−80° C.). Control animals treated with vehicle only were also included in the experimental protocol.
Preparation of Samples, Standard Curve and QC Samples for UPLC-MS Analysis
Samples were thawed in an ice bath and after a short centrifugation transferred (50 μL) into a 96-deepwell plate and added with 150 μL of acetonitrile spiked with 200 nM Warfarin (the Internal Standard, I.S.). After agitation (3 min) the plate was centrifuged at 3000 g for 10 min at 4° C. […]
Compounds plasma levels were monitored on a Xevo TQ UPLC-MS/MS system (Waters, Milford USA), using the calibration curve and the internal standard (Warfarin). […] Plasma levels data were analyzed using PKSolutions excel application (Summit Research Service, USA) to derive the most important pharmacokinetic parameters. […]

CNC(=O)c1cccc(-c2cccc(OC(=O)NC3CCCCC3)c2)c1
AUC PO (10 mg/kg): 90205 ng·min/mL
